Results: patent publication US10092540B2, “Method of treatment of a mucopolysaccharidosis” (INVENTIVA, priority 2013, dated 2018)

Tests used:
[1] = system: GM00031 fibroblast cells, isolated from an unaffected donor; experiment: Intracellular chondroitin sulfate content (immunofluorescence) in control fibroblasts; format: cell-based, human; settings: 72 h
Experimental: (§1) Human dermal fibroblasts (GM00034B fibroblast cells, isolated from an MPS I patient and GM00031 fibroblast cells, isolated from an unaffected donor) were obtained from the Coriell Institute for Medical Research. Cells were cultured in 96-well plates for 24 h. The culture medium was then replaced with culture medium containing or not containing (vehicle) odiparcil at various concentrations (0.03, 0.1, 0.3, 1, 3, or 10 μM), and then the cells were incubated for 72 h. After incubation, culture media were discarded and the cells were rinsed with PBS, then fixed in PFA 4%. A part of the wells was then incubated for 2 hours at 37° C. with an enzymatic solution of chondroitinase ABC (CSase). After 2 hours of digestion with CSase ABC buffers were discarded, then the cells were rinsed with PBS and permeabilized with PBS-Triton 0.1%. The cells were then labeled using a primary anti-chondroitin sulfate antibody.

[2] = system: GM00034B fibroblast cells, isolated from an MPS I patient; experiment: Intracellular chondroitin sulfate content (immunofluorescence) in fibroblasts from an MPS I patient; format: cell-based, human; settings: 72 h
Experimental: as §1

[3] = system: Bovine aortic endothelial cells (ECACC 92010601); experiment: 35S-labeled GAG level in culture supernatant of bovine aortic endothelial cells; format: cell-based
Experimental: Bovine aortic endothelial cells (ECACC 92010601), cultured in 6-well plates, were incubated for 24 h in the presence of ^35S sodium sulfate (10 μci/ml) and of odiparcil solubilized in DMSO at various concentrations (1-10 μM; 0.1% final concentration of DMSO). The culture supernatants were recovered and the cell layers were rinsed with phosphate buffer (PBS). The culture supernatants and the rinsing solutions were combined in tubes. A solution of unlabeled dermatan sulfate (200 μg) was then added in order to serve as an entraining agent. The unincorporated ^35S was then removed by gel filtration on Sephadex G25 columns, the GAGs being eluted in the column exclusion fraction (V0). […] After centrifugation, the alcoholic precipitates were redissolved in 0.9% sodium chloride and then the radioactivity was measured on an aliquot fraction after addition of scintillation fluid in counting vials.
In order to type the GAGs produced in the supernatants from cells in culture, the redissolved alcoholic precipitates were treated with chondroitinase ABC (Proteus vulgaris) in a proportion of 0.5 mU/μL, for 3 h at 37° C. […] After centrifugation, the alcoholic precipitates were redissolved in 0.9% sodium chloride and then the radioactivity was measured on an aliquot fraction after addition of scintillation fluid in counting vials. […]

[4] = system: Normal human dermal fibroblasts (BIOAlternatives PF2); experiment: Total GAG synthesis (3H-glucosamine incorporation) by normal human dermal fibroblasts; format: cell-based; settings: 10 μM, 72 h
Experimental: Normal human dermal fibroblasts (BIOAlternatives PF2) were cultured in 96-well plates for 24 h. The culture medium was then replaced with culture medium containing or not containing (control) odiparcil at various concentrations (1 μM, 3 μM, 10 μM) or the TGF-β reference at 10 ng/ml (positive control), and then the cells were incubated for 72 h with addition of the ^3H-glucosamine radioactive label for evaluating total GAG synthesis. At the end of the incubation, a chaotropic buffer was added to the wells of the culture plates in order to lyse the fibroblasts. The total GAGs of the cell lysates were then purified by ion exchange chromatography (Q-Sepharose column). The radioactivity incorporated into the anionic fractions was measured by liquid scintillation.

[5] = system: GM03181 and GM00615 fibroblasts isolated from two MPS II patients; experiment: CS, DS and HS content by UPLC MSMS in MPS II fibroblasts; format: cell-based, human; settings: 10 μM, 72 h, FIG. 4
Experimental: (§2) Human dermal fibroblasts (GM00034B and GM01391 fibroblast cells, isolated from two MPS I patients and GM03181 and GM00615 fibroblasts isolated from two MPS II patients) were obtained from the Coriell Institute for Medical Research. Cells were cultured in T25-flask for 24 h. The culture medium was then replaced with culture medium containing or not containing (vehicle) odiparcil at 10 μM, and then the cells were incubated for 72 h. After incubation, culture media were discarded and the cells were rinsed with PBS, then scrapped in PBS. Cells were then collected by centrifugation and cell pellets were frozen until further analysis. Quantitation of Heparan sulfate (HS), Dermatan sulfate (DS) and Chondroitin sulfate (CS) were performed using UPLC MSMS using a method adapted from method published in Zhang et al. 2015. Glycosaminoglycan values are expressed as mean+SD in μg GAG species per milligram protein.

male C57B16/J mice [6] = experiment: Liver total sulfated GAG levels in tilorone-induced mucopolysaccharidosis mouse model; format: in vivo
Experimental: (§3) The effect of odiparcil on GAG storage was assessed in a model of mucopolysaccharidosis induced by Tilorone. Chronic administration of tilorone induces GAGs accumulation in various organs including liver, spleen, and kidney (Fischer et al. 1996, 315 (Pt 2):369-375; Prokopek 1991, 42:2187-2191). Tilorone (50 mg/kg/day) was administered via drinking water and odiparcil at 30 or 100 mg/kg/day (corresponding to 15 mg/kg and 50 mg/kg given bid, respectively) was given by oral gavage. Tilorone, odiparcil or vehicle were administered to male C57B16/J mice for 28 days.
At the end of the study period, animals were anesthetized and sacrificed. The liver of each animal was then collected, rinsed in physiological serum, blotted in absorbent paper and weighted. It was then cut in pieces and cooled by snap-freezing in liquid nitrogen before being stored at −80° C. The activity of odiparcil was assessed by quantifying total sulfated glycosaminoglycan (GAG) levels in the liver. Sulfated glycosaminoglycan concentration was measured using the Blyscan™ assay from Biocolor (UK) following the manufacturer's instructions. The data were statistically analyzed by one-way analysis of variance followed by a Tukey's test between all groups: ***: p<0.001 vs vehicle/vehicle, and $: p<0.05 vs tilorone/vehicle.

New Zealand Rabbits = experiment: Plasma GAG level and disaccharide composition in rabbits after oral administration; format: in vivo, rabbit; settings: 400 mg/kg oral
Experimental: Odiparcil was administered Orally to New Zealand Rabbits at the Dose of 400 mg/kg. 4 h after the administration, the animals were anesthetized and blood samples were taken on citrate tubes after catherization of the carotid artery. After centrifugation, the plasma was removed and frozen. The plasma GAGs were isolated after digestion of the proteins with Pronase E, for 48 h at 50° C. The proteins and the protein residues were precipitated by adding trichloroacetic acid and incubated overnight at 4° C. After centrifugation, the supernatants were collected, and then dialyzed against 100 volumes of phosphate buffer, for 48 h at 4° C. A solution of cetylpyridinium chloride (0.1% final concentration) was added to the dialysates in order to precipitate the GAGs, for 24 h at ambient temperature. The samples were then centrifuged and the supernatant was removed. The precipitate obtained was redissolved in 2M sodium chloride and the GAGs were precipitated with 5 volumes of 95% ethanol. After centrifugation, the alcoholic precipitates were redissolved in 0.9% sodium chloride and desalified on a Sephadex G25 column (PD10).
The plasma GAGs extracted were quantified by assaying the uronic acid content, modified Bitter and Muir carbazole method. The qualitative analysis of the plasma GAG extracts was carried out by HPLC of the disaccharides obtained after enzymatic digestion with chrondroitinase ABC from Proteus vulgaris and chrondroitinase AC from Arthrobacter aurescens.

[7] = system: GM00034B and GM01391 fibroblast cells, isolated from two MPS I patients; experiment: CS, DS and HS content by UPLC MSMS in MPS I fibroblasts; format: cell-based, human; settings: 10 μM, 72 h, FIG. 4
Experimental: as §2

male C57B16/J mice [8] = experiment: Urinary sulfated GAG levels in tilorone-induced mucopolysaccharidosis mouse model; format: in vivo
Experimental: as §3
After 21 days of treatment, urine were collected over a 24 hour period by placing the animal in diuresis/metabolic cages. The activity of odiparcil was assessed by quantifying total sulfated GAG levels in the collected urine. After a 10 to 20 fold dilution of the urine in water, sulfated glycosaminoglycan concentrations were measured using Blyscan™ assay from Biocolor (UK) following the manufacturer's instructions. Creatinine levels were also assessed on undiluted urine samples, using the CREATININE (Jaffé) kit (ref 981811) from ThermoFisher according to the manufacturer's instructions. Urinary sulfated GAG levels were normalized by creatinine levels. The data were analyzed statistically by one-way analysis of variance followed by a Tukey's test between all groups: ***: p<0.001 for vehicle/vehicle, and $$$: p<0.001 for tilorone/vehicle.

[9] = tilorone 50 mg/kg/day via drinking water, vs vehicle/vehicle

## Cc1cc(=O)oc2cc(O[C@@H]3SC[C@@H](O)[C@H](O)[C@H]3O)ccc12 [Odiparcil, 4-methyl-2-oxo-2H-1-benzopyran-7-yl-5-thio-β-D-xylopyranoside]
[1]; 0.03-10 μM, FIG. 3
  intracellular chondroitin sulfate (CS) content: inhibited, in a dose-dependent manner
[1]
  IC50 for reduction of intracellular CS: in the μM range
  extent of reduction of intracellular CS: complete reduction
[2]; 0.03-10 μM, FIG. 3
  intracellular chondroitin sulfate (CS) content: inhibited, in a dose-dependent manner
[2]
  IC50 for reduction of intracellular CS: in the μM range
  extent of reduction of intracellular CS: complete reduction
[3]; chondroitinase ABC / heparinase II digestion
  type of GAGs synthesized by the cells in culture (enzymatic digestions): predominantly of chondroitin sulfate type
[3]; odiparcil 1-10 μM, 24 h, FIG. 1
  level of 35S-labeled GAGs in the culture supernatant: increases, in a dose-dependent manner
[4]; 1 μM, 3 μM, FIG. 2
  total GAG synthesis (dose dependence): stimulates, in a dose-dependent manner
[4]
  stimulation of total GAG synthesis vs control: +94%
[5]
  chondroitin sulfate (CS) content: inhibited
  dermatan sulfate (DS) content: inhibited
  heparan sulfate (HS) content: inhibited
Male C57B16/J mice [6]; odiparcil 100 mg/kg/day, p<0.05
  statistical significance of effect on total GAG liver content vs tilorone/vehicle: statistically significant
Male C57B16/J mice [6]; odiparcil 30 or 100 mg/kg/day oral gavage with tilorone, end of study, FIG. 6
  tilorone-induced accumulation of liver total GAG levels: decreased
New Zealand Rabbits; rabbit plasma GAGs, 4 h
  Δdi-0S (%) nonsulfated disaccharides: 18.6%
  Δdi-4S (%) 4-sulfated disaccharides: 26%
  Δdi-4S DS (%) 4-sulfated disaccharides (dermatan sulfate component): 20.5%
  Δdi-6S (%) 6-sulfated disaccharides (galactosamine-6-sulfate component): 30.8%
  Δdi-UA2S (%) 2UA-sulfated disaccharides: 4.1%
New Zealand Rabbits; rabbit, 4 h
  factor of increase of plasma GAG level compared with control animals: 5
New Zealand Rabbits; rabbit, 4 h after administration
  μg UA/ml plasma (plasma GAG level via uronic acid content): 11.4 μg UA/ml
[7]
  chondroitin sulfate (CS) content: inhibited
  dermatan sulfate (DS) content: inhibited
  heparan sulfate (HS) content: inhibited
Male C57B16/J mice [8]; odiparcil 30 and 100 mg/kg/day, p<0.001
  statistical significance of effect on urinary sulfated GAG levels vs tilorone/vehicle: statistically significant at both tested doses
Male C57B16/J mice [8]; odiparcil 30 or 100 mg/kg/day oral gavage with tilorone, urine after 21 days, FIG. 5
  sulfated GAG levels in urine (normalized by creatinine): increased sulfated GAG levels in urine in a dose-dependent manner

## CCN(CC)CCOc1ccc2c(c1)C(=O)c1cc(OCCN(CC)CC)ccc1-2 [Tilorone, reference compound]
Male C57B16/J mice [6]; [9]
  GAG levels in the liver: increased
Male C57B16/J mice [8]; [9]
  GAG levels in urine: increased
